# Patent publication US9353082B2, “Pharmaceutical compounds” (BIAL—PORTELA & CA, S.A., priority 2008, dated 2016)
# Assays:
# FAAH [1] = target: T1, FAAH (Rattus norvegicus, UniProt P97612); assay: In vitro FAAH activity in rat brain membranes, 3H-AEA substrate, % of control; assay type: biochemical, Wistar rats; settings: 100 nM test compound, low value = strong inhibitor
# T1 construct: Frozen brains (without cerebellum) from Wistar rats were used; from tissue; host or cells: Wistar rat brain (without cerebellum), washed membrane pellets
# T1 sequence (P97612 1-579): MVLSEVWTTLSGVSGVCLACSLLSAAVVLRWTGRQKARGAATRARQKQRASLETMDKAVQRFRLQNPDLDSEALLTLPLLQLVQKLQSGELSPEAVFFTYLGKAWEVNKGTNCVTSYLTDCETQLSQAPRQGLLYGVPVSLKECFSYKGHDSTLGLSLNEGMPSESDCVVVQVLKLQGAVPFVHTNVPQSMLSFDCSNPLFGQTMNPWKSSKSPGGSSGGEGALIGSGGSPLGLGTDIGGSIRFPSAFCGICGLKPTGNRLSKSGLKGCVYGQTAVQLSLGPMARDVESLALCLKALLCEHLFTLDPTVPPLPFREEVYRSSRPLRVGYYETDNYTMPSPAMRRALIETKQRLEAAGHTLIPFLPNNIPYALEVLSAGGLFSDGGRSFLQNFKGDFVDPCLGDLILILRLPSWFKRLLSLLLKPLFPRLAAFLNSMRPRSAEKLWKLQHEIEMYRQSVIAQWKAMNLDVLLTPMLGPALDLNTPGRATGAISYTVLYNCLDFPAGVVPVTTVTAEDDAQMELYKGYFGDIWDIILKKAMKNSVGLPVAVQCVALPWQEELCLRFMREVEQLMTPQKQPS
# Procedure, shortened: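 FAAH activity measured as 3H-ethanolamine released from 2 μM [3H]AEA over 10 min by rat brain membrane preparation, after 15 min 37 °C preincubation with test compound at 10 or 0.1 μM. Charcoal-separated supernatant scintillation-counted; values expressed as % of control minus no-protein blank.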
# FAAH [2] = target: T2, FAAH (Mus musculus, UniProt O08914); assay: In vivo FAAH inhibition after oral dosing, remaining activity in liver homogenate (LVh, peripheral tissue); design: species or system NMRI mice; settings: liver homogenate, 3 mg/kg, 8 h
# T2 construct: A fragment of liver, left lung lobe and brain without cerebellum were removed; from tissue; host or cells: male NMRI mice; brain (without cerebellum) and liver homogenates
# T2 sequence (O08914 1-579): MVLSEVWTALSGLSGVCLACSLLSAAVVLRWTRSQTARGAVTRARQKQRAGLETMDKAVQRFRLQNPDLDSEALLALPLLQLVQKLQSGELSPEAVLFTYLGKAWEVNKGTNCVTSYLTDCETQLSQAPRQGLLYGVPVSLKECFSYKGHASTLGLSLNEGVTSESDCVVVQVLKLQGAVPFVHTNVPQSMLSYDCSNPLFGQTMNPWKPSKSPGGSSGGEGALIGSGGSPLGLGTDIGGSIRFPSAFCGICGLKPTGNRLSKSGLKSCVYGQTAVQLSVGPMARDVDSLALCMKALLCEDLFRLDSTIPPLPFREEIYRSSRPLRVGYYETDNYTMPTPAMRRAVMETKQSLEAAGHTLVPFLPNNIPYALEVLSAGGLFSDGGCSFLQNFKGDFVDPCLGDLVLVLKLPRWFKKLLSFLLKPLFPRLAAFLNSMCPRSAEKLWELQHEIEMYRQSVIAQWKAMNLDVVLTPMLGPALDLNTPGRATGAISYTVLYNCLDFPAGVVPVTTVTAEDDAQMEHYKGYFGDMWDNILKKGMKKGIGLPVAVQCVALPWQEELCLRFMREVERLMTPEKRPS
# Procedure, shortened: (§1)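 Remaining FAAH activity is given as % of vehicle-treated controls after blank subtraction, measured by radiolabelled AEA hydrolysis (2 μM AEA, 5 nM 3H-AEA, 37 °C) in brain (10 min) or liver (7 min) homogenates. These came from fasted male NMRI mice dosed orally at 30 or 3 mg/kg.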
# FAAH [3] = target: T2, FAAH; assay: In vivo FAAH inhibition after oral dosing, remaining activity in brain homogenate (BRh, central nervous tissue); design: species or system NMRI mice; settings: brain homogenate, 3 mg/kg, 8 h
# Procedure, shortened: as §1
SMILES,"In Vitro FAAH activity, 100 nM (FAAH [1])","In Vivo LVh 3 mg/kg 8 h, remaining FAAH activity (FAAH [2])","In Vivo BRh 3 mg/kg 8 h, remaining FAAH activity (FAAH [3])"
"O=C(N1CCC(OCCCc2ccccc2)CC1)n1nnc2ccccc21 [Compound 135, (1H-benzo[d][1,2,3]triazol-1-yl)(4-(3-phenylpropoxy)piperidin-1-yl)methanone]",0.1 % of control,30.1 % of control,26.5 % of control
"CN1CCN(c2ccc(-c3ncn(C(=O)N4CCOCC4)n3)cc2)CC1 [Compound 139, (3-(4-(4-methylpiperazin-1-yl)phenyl)-1H-1,2,4-triazol-1-yl)(morpholino)methanone]",80.2 % of control,105.7 % of control,97.1 % of control
"CN(C(=O)n1nnc2ccccc21)C1CCC2(CC1)OCC(C)(C)CO2 [Compound 143, N-(3,3-dimethyl-1,5-dioxaspiro[5.5]undec-9-yl)-N-methyl-1H-benzotriazole-1-carboxamide]",2.5 % of control,0.7 % of control,0.4 % of control
"COc1ccc(OCCC2CCN(C(=O)n3nnc4ccccc43)CC2)cc1 [Compound 144, (1H-benzo[d][1,2,3]triazol-1-yl)(4-(2-(4-methoxyphenoxy)ethyl)piperidin-1-yl)methanone]",0.1 % of control,17.6 % of control,68.2 % of control
"Cl.N#Cc1ccc(Oc2ccc(-c3ncn(C(=O)N4CCN(c5ccccc5)CC4)n3)cc2)cc1 [Compound 145, 4-(4-(1-(4-phenylpiperazine-1-carbonyl)-1H-1,2,4-triazol-3-yl)phenoxy)benzonitrile hydrochloride]",0.3 % of control,116.5 % of control,89.9 % of control
"NC(=O)c1ccc(Oc2ccc(-c3ncn(C(=O)N4CCOCC4)n3)cc2)cc1 [Compound 147, 4-(4-(1-(morpholine-4-carbonyl)-1H-1,2,4-triazol-3-yl)phenoxy)benzamide]",55.1 % of control,103 % of control,124.4 % of control
"NC(=O)c1ccc(Oc2ccc(-c3ncn(C(=O)N4CCN(c5ccccc5)CC4)n3)cc2)cc1 [Compound 148, 4-(4-(1-(4-phenylpiperazine-1-carbonyl)-1H-1,2,4-triazol-3-yl)phenoxy)benzamide]",0.3 % of control,87.6 % of control,113.7 % of control
"CN(Cc1ccccc1)C(=O)n1cnc(-c2ccc(F)cc2)c1 [Compound 150, N-benzyl-4-(4-fluorophenyl)-N-methyl-1H-imidazole-1-carboxamide]",1.2 % of control,3.8 % of control,5.6 % of control
"CN(Cc1ccccc1)C(=O)n1cnc(-c2ccc(Oc3ccc(C(N)=O)cc3)cc2)n1 [Compound 151, N-benzyl-3-(4-(4-carbamoylphenoxy)phenyl)-N-methyl-1H-1,2,4-triazole-1-carboxamide]",0.4 % of control,65.8 % of control,116.7 % of control
"O=C(N1CCN(c2ccccc2)CC1)n1cnc(-c2cccs2)n1 [Compound 155, (4-phenylpiperazin-1-yl)(3-(thiophen-2-yl)-1H-1,2,4-triazol-1-yl)methanone]",0.4 % of control,108.2 % of control,144.1 % of control
"CN(CCOCc1ccccc1)C(=O)n1nnc2ccccc21 [Compound 156, N-(2-(benzyloxy)ethyl)-N-methyl-1H-benzo[d][1,2,3]triazole-1-carboxamide]",0.1 % of control,24.4 % of control,67.2 % of control
"COc1ccc(OCCN(C)C(=O)n2nnc3ccccc32)cc1 [Compound 157, N-(2-(4-methoxyphenoxy)ethyl)-N-methyl-1H-benzo[d][1,2,3]triazole-1-carboxamide]",0 % of control,3.5 % of control,5.2 % of control
"Cl.O=C(N1CCN(Cc2ccccc2)CC1)n1cnc(-c2cccs2)n1 [Compound 158, (4-benzylpiperazin-1-yl)(3-(thiophen-2-yl)-1H-1,2,4-triazol-1-yl)methanone hydrochloride]",0.3 % of control,85.6 % of control,92 % of control
"CC1(C)COCN1C(=O)n1nnc2ccc(Br)cc21 [Compound 162, (6-bromo-1H-benzo[d][1,2,3]triazol-1-yl)(4,4-dimethyloxazolidin-3-yl)methanone]",0 % of control,3.1 % of control,0.9 % of control
"CC1(C)COCN1C(=O)n1nnc2ccc(-c3cccc(C(N)=O)c3)cc21 [Compound 163, 3-(3-(4,4-dimethyloxazolidine-3-carbonyl)-3H-benzo[d][1,2,3]triazol-5-yl)benzamide]",0.6 % of control,2.4 % of control,6.3 % of control
"O=C(N1CCS(=O)(=O)C1)n1nnc2ccccc21 [Compound 167, 1-[(1,1-dioxido-1,3-thiazolidin-3-yl)carbonyl]-1H-benzotriazole]",96.2 % of control,104 % of control,99.9 % of control
"O=C(N1CCN(c2ccccc2)CC1)n1cnc(Cc2ccccc2)n1 [Compound 182, (3-benzyl-1H-1,2,4-triazol-1-yl)(4-phenylpiperazin-1-yl)methanone]",0.6 % of control,111 % of control,90.6 % of control
"CC1(C)COCN1C(=O)n1cnc(-c2ccc(F)cc2F)n1 [Compound 183, (3-(2,4-difluorophenyl)-1H-1,2,4-triazol-1-yl)(4,4-dimethyloxazolidin-3-yl)methanone]",102 % of control,78.1 % of control,92.4 % of control
"CC1(C)COCN1C(=O)n1cnc(-c2ccc(Cl)cc2)c1 [Compound 186, (4-(4-chlorophenyl)-1H-imidazol-1-yl)(4,4-dimethyloxazolidin-3-yl)methanone]",96.5 % of control,37.7 % of control,78.7 % of control
"CC1(C)COCN1C(=O)n1cnc(-c2ccc(Oc3ccc(C(N)=O)cc3)cc2)n1 [Compound 187, 4-(4-(1-(4,4-dimethyloxazolidine-3-carbonyl)-1H-1,2,4-triazol-3-yl)phenoxy)benzamide]",92.8 % of control,108.6 % of control,85.6 % of control
